The structures appear in SMILES notation.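 Five concentrations, 48 hours, 96-well plates. At the TGI there is no net growth.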

The record followed here is PubChem BioAssay (NCI).

The test system of one experiment is SNB-75 CNS. In words: NCI tumour cell line growth inhibition, 48 h.
For the compound `O=C(O)c1ccc(NS(=O)(=O)Cc2ccccc2)cc1`, the TGI was > 100 µM.

Take `O=C1/C(=C/c2ccc(Br)s2)NC(=S)N1CN1CCOCC1`: the TGI is > 100 µM.

For `CC(=O)/C(=C/n1c(=S)sc2ccccc21)C(=O)Nc1ccccc1C`, the TGI was > 100 µM.

On to `Cc1ccc(C2=Nc3c(c(C)nn3-c3ccccc3)N=C(C(=O)O)C2)cc1`, for which the TGI was > 10 µM.

In the case of `Cc1ccc(C(=O)Nc2ccc(CP(=O)(O)O)cc2)cc1NC(=O)c1cccc(NC(=O)Nc2cccc(C(=O)Nc3cc(C(=O)Nc4ccc(CP(=O)(O)O)cc4)ccc3C)c2)c1`, the TGI was > 100 µM.

Consider `CCOC(=O)c1cnc2[nH]ccn2c1=O`, for which the TGI was > 10 µM.

Take `O=C1C(Br)=Cc2c(Cl)sc(Cl)c21`: the TGI was found to be 30.4 µM.

`O=[N+]([O-])C(=C(Sc1ccccc1)Sc1ccccc1)C(Cl)=C(Cl)Cl` came in with a TGI of 10.7 µM.

For `NCCCC(N)C(=O)O` (stereo not drawn), the TGI is > 100 µM.

In turn, `CCOC(=O)C1C(=O)CC(O)(c2ccccc2)C(C(=O)OCC)C1c1ccc(OC)cc1` (stereo not drawn) had a TGI of 11.9 µM.

For `COC(=O)CCCC(=O)C(=Nc1c(Cl)cccc1Cl)NNc1ccc(Cl)cc1`, the TGI is > 88.9 µM.

For the next experiment, the system named is MDA-N. As to the kind of experiment: NCI tumour cell line growth inhibition, 48 h.
Consider `CC(C)(CO)N1C(=O)c2ccccc2C1(O)c1ccc(Cl)cc1` (stereo not drawn), for which the TGI was > 100 µM.

For the compound `COC(=O)C1CC(C=[N+](C)C)=C(SC)N1` (stereo not drawn), the TGI is > 100 µM.

On to `CN1CN(c2ccccc2)C2(CCN(CCCC3(c4cccs4)OCCO3)CC2)C1=O`, for which the TGI was > 100 µM.

Compound `Cc1cc(O)cc(O)c1N=Nc1ccc([N+](=O)[O-])cc1` displayed a TGI of 83.9 µM.

Take `O=c1c2cc(I)ccc2[nH]c(=S)n1Cc1ccccc1`: the TGI is > 100 µM.

Take `Cc1nc2ccc([N+](=O)[O-])cc2c(=O)n1C(=S)Nc1cccc(Cl)c1`: the TGI was found to be 39.4 µM.

As to `Cc1cccc(C[C@@]2(SCc3ccccc3)C(C)(C)[C@@H]3CC[C@@]2(C)C3)n1`, the TGI came to 60.2 µM.

On to `N#Cc1c(OCCF)c2ccccc2n2c1nc1ccccc12`, for which the TGI was > 100 µM.

For the compound `O=C1/C(=C/c2ccc([N+](=O)[O-])cc2)CNC/C1=C\c1ccc([N+](=O)[O-])cc1`, the TGI came out at 25.5 µM.

As for `C/C(=N/NC(=S)Nc1cccc(C)c1)c1ccccn1`, the TGI turned out to be 3.61 µM.

For the compound `O=C(O)c1ccc(NS(=O)(=O)Cc2ccccc2)cc1`, the TGI was > 100 µM.

As for `O=C1/C(=C/c2ccc(Br)s2)NC(=S)N1CN1CCOCC1`, the TGI is > 100 µM.

On to `CC(=O)/C(=C/n1c(=S)sc2ccccc21)C(=O)Nc1ccccc1C`, for which the TGI is > 100 µM.

`Cc1ccc(C2=Nc3c(c(C)nn3-c3ccccc3)N=C(C(=O)O)C2)cc1`: the TGI was > 10 µM.

`Cc1ccc(C(=O)Nc2ccc(CP(=O)(O)O)cc2)cc1NC(=O)c1cccc(NC(=O)Nc2cccc(C(=O)Nc3cc(C(=O)Nc4ccc(CP(=O)(O)O)cc4)ccc3C)c2)c1`: the TGI was > 100 µM.

For `CCOC(=O)c1cnc2[nH]ccn2c1=O`, the TGI is > 10 µM.

As for `O=C1C(Br)=Cc2c(Cl)sc(Cl)c21`, the TGI came out at 8.7 µM.

For the compound `O=[N+]([O-])C(=C(Sc1ccccc1)Sc1ccccc1)C(Cl)=C(Cl)Cl`, the TGI stood at 0.675 µM.

In the case of `NCCCC(N)C(=O)O` (stereo not drawn), the TGI is > 100 µM.

`CCOC(=O)C1C(=O)CC(O)(c2ccccc2)C(C(=O)OCC)C1c1ccc(OC)cc1` (stereo not drawn) showed a TGI of 16 µM.

Regarding `COC(=O)CCCC(=O)C(=Nc1c(Cl)cccc1Cl)NNc1ccc(Cl)cc1`, the TGI is > 100 µM.

For another experiment, the system named is HCT-15 colon. As to the kind of experiment: NCI tumour cell line growth inhibition, 48 h.
In the case of `CC(C)(CO)N1C(=O)c2ccccc2C1(O)c1ccc(Cl)cc1` (stereo not drawn), the TGI was > 100 µM.

With `COC(=O)C1CC(C=[N+](C)C)=C(SC)N1` (stereo not drawn), the TGI is > 100 µM.

For the compound `CN1CN(c2ccccc2)C2(CCN(CCCC3(c4cccs4)OCCO3)CC2)C1=O`, the TGI was > 100 µM.

In the case of `Cc1cc(O)cc(O)c1N=Nc1ccc([N+](=O)[O-])cc1`, the TGI amounted to 28.9 µM.

With `O=c1c2cc(I)ccc2[nH]c(=S)n1Cc1ccccc1`, the TGI is > 100 µM.

Turning to `Cc1nc2ccc([N+](=O)[O-])cc2c(=O)n1C(=S)Nc1cccc(Cl)c1`, the TGI is 31 µM.

As for `Cc1cccc(C[C@@]2(SCc3ccccc3)C(C)(C)[C@@H]3CC[C@@]2(C)C3)n1`, the TGI is 26.8 µM.

`N#Cc1c(OCCF)c2ccccc2n2c1nc1ccccc12`: the TGI was > 100 µM.

For the compound `O=C1/C(=C/c2ccc([N+](=O)[O-])cc2)CNC/C1=C\c1ccc([N+](=O)[O-])cc1`, the TGI came out at 3.06 µM.

Compound `C/C(=N/NC(=S)Nc1cccc(C)c1)c1ccccn1` came in with a TGI of 2.24 µM.

Take `O=C(O)c1ccc(NS(=O)(=O)Cc2ccccc2)cc1`: the TGI is > 100 µM.

Regarding `O=C1/C(=C/c2ccc(Br)s2)NC(=S)N1CN1CCOCC1`, the TGI is > 100 µM.

For the compound `CC(=O)/C(=C/n1c(=S)sc2ccccc21)C(=O)Nc1ccccc1C`, the TGI was > 100 µM.

Take `Cc1ccc(C2=Nc3c(c(C)nn3-c3ccccc3)N=C(C(=O)O)C2)cc1`: the TGI is > 10 µM.

Turning to `Cc1ccc(C(=O)Nc2ccc(CP(=O)(O)O)cc2)cc1NC(=O)c1cccc(NC(=O)Nc2cccc(C(=O)Nc3cc(C(=O)Nc4ccc(CP(=O)(O)O)cc4)ccc3C)c2)c1`, the TGI is > 100 µM.

As to `CCOC(=O)c1cnc2[nH]ccn2c1=O`, the TGI is > 10 µM.

On to `O=C1C(Br)=Cc2c(Cl)sc(Cl)c21`, for which the TGI was found to be 18.6 µM.

The compound `O=[N+]([O-])C(=C(Sc1ccccc1)Sc1ccccc1)C(Cl)=C(Cl)Cl` came in with a TGI of 1.02 µM.

In the case of `NCCCC(N)C(=O)O` (stereo not drawn), the TGI is > 100 µM.

Take `CCOC(=O)C1C(=O)CC(O)(c2ccccc2)C(C(=O)OCC)C1c1ccc(OC)cc1` (stereo not drawn): the TGI is > 100 µM.

Consider `COC(=O)CCCC(=O)C(=Nc1c(Cl)cccc1Cl)NNc1ccc(Cl)cc1`, for which the TGI is > 100 µM.

A further experiment deals with ACHN renal. As to the kind of experiment: NCI tumour cell line growth inhibition, 48 h.
As for `CC(C)(CO)N1C(=O)c2ccccc2C1(O)c1ccc(Cl)cc1` (stereo not drawn), the TGI was > 100 µM.

In the case of `COC(=O)C1CC(C=[N+](C)C)=C(SC)N1` (stereo not drawn), the TGI is > 100 µM.

Take `CN1CN(c2ccccc2)C2(CCN(CCCC3(c4cccs4)OCCO3)CC2)C1=O`: the TGI is > 100 µM.

`Cc1cc(O)cc(O)c1N=Nc1ccc([N+](=O)[O-])cc1` yielded a TGI of 94.9 µM.

For the compound `O=c1c2cc(I)ccc2[nH]c(=S)n1Cc1ccccc1`, the TGI is > 100 µM.

Consider `Cc1nc2ccc([N+](=O)[O-])cc2c(=O)n1C(=S)Nc1cccc(Cl)c1`, for which the TGI came out at 48.2 µM.

Compound `Cc1cccc(C[C@@]2(SCc3ccccc3)C(C)(C)[C@@H]3CC[C@@]2(C)C3)n1` had a TGI of 28.8 µM.

For `N#Cc1c(OCCF)c2ccccc2n2c1nc1ccccc12`, the TGI is > 100 µM.

In the case of `O=C1/C(=C/c2ccc([N+](=O)[O-])cc2)CNC/C1=C\c1ccc([N+](=O)[O-])cc1`, the TGI was 25.3 µM.

Turning to `C/C(=N/NC(=S)Nc1cccc(C)c1)c1ccccn1`, the TGI was found to be 6.83 µM.

As to `O=C(O)c1ccc(NS(=O)(=O)Cc2ccccc2)cc1`, the TGI was > 100 µM.

As for `O=C1/C(=C/c2ccc(Br)s2)NC(=S)N1CN1CCOCC1`, the TGI is > 100 µM.

For the compound `CC(=O)/C(=C/n1c(=S)sc2ccccc21)C(=O)Nc1ccccc1C`, the TGI was > 100 µM.

Take `Cc1ccc(C2=Nc3c(c(C)nn3-c3ccccc3)N=C(C(=O)O)C2)cc1`: the TGI is > 10 µM.

Turning to `Cc1ccc(C(=O)Nc2ccc(CP(=O)(O)O)cc2)cc1NC(=O)c1cccc(NC(=O)Nc2cccc(C(=O)Nc3cc(C(=O)Nc4ccc(CP(=O)(O)O)cc4)ccc3C)c2)c1`, the TGI is > 100 µM.
